Test results: publication PMC5846083 (Journal of Medicinal Chemistry, 2018)
One block for each molecule: values may come before it.

Key:
[1] = molecular target: Na,K-ATPase α4 (Rattus norvegicus, UniProt Q64541); test: Inhibition of Na,K-ATPase α4 activity; type: biochemical; details: for reduced activity compared to ouabain: Na,K-ATPase α4 inhibition; for loss of Na,K-ATPase α4 inhibitory activity versus comparator: 29 versus 32, 19 versus 25; for IC50 for Na,K-ATPase α4 inhibition (Figure 1): recombinant rat α4, mean of two experiments in quadruplicate
Chain of Na,K-ATPase α4 (Q64541 whole entry, other chains not shown): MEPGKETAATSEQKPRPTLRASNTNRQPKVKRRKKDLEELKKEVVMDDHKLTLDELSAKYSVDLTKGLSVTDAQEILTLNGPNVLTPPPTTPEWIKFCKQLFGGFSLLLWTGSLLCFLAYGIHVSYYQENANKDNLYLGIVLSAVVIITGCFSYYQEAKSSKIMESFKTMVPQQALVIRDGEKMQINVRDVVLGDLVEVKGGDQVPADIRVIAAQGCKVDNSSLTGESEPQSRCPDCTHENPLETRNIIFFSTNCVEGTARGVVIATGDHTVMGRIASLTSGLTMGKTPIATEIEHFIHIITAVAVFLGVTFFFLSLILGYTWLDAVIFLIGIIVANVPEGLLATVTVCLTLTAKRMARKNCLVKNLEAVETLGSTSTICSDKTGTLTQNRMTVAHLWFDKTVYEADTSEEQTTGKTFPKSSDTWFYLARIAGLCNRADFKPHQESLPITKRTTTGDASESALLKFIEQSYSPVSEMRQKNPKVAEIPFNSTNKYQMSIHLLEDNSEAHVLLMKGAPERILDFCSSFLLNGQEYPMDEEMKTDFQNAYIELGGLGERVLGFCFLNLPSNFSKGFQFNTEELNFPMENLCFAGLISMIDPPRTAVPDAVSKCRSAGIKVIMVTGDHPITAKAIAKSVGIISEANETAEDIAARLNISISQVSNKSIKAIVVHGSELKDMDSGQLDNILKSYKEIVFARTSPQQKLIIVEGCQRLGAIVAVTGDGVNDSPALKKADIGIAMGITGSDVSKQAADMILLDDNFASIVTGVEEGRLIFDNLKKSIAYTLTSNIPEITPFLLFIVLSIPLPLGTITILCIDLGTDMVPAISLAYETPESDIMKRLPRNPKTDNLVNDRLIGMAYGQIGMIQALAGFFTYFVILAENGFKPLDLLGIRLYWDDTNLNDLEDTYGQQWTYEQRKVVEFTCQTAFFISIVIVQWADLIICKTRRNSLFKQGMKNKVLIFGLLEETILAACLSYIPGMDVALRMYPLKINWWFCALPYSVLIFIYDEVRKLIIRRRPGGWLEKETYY

[2] = test system: rat sperm; test: Rat sperm motility in vitro; type: cell-based; details: for maximum reduction of sperm motility: even at high concentrations
[3] = molecular target: hERG (Homo sapiens, UniProt Q12809); test: hERG competitive displacement fluorescence polarization assay
Chain of hERG (Q12809 whole entry): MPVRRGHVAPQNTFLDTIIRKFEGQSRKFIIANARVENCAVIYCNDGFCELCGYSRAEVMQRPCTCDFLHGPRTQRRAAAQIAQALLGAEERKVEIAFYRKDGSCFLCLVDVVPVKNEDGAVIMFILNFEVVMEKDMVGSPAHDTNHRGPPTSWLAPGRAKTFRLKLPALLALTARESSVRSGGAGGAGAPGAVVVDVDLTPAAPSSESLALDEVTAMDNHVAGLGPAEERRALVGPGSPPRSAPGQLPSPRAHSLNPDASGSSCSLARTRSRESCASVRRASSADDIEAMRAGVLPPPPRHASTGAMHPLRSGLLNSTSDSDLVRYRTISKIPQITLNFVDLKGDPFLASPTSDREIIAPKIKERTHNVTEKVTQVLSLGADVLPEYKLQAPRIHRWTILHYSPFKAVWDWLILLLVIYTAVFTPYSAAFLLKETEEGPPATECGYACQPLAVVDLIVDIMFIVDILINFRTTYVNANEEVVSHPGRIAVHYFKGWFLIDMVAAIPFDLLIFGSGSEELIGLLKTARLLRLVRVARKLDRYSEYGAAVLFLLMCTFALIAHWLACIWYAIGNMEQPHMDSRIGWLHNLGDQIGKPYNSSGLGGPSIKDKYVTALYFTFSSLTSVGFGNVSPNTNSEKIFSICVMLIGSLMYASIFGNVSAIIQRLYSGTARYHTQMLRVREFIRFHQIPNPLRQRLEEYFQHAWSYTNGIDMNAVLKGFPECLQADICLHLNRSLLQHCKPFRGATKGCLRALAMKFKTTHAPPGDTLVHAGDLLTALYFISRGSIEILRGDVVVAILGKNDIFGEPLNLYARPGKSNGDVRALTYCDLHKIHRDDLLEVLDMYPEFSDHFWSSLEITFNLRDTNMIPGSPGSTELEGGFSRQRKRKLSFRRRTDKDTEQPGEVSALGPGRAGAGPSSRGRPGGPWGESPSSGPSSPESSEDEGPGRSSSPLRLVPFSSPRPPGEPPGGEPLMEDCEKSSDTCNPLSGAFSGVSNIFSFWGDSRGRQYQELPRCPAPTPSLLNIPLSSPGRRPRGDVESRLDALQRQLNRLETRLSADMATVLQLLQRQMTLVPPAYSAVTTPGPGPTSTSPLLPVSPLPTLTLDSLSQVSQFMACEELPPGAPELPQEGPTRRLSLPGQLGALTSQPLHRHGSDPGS

[4] = test system: rat sperm; test: Sperm membrane potential; type: cell-based; details: 10^–8 M, 1 h
[5] = test system: rat sperm; test: Sperm intracellular pH, SNARF-1; type: cell-based; details: 10^–8 M, 1 h
[6] = test system: rat sperm; test: Sperm intracellular Ca2+, Calcium Green; type: cell-based; details: 10^–8 M, 1 h
[7] = General toxicity in treated rats; type: in vivo, rat; details: oral gavage, 5–20 mg/kg
[8] = test system: rat sperm; test: Sperm hyperactivated motility under capacitating conditions; details: 10^–8 M, 1 h, capacitating medium
[9] = test system: human Na,K-ATPase α4; details: human isoforms; cited from earlier work

SMILES: C[C@]12C[C@@H](O)[C@H]3[C@@H](CC[C@]4(O)C[C@@H](O)C[C@@H](O)[C@]34CO)[C@@]1(O)CCC2c1cn(Cc2ccc(F)cc2)nn1 (mixture of isomers) [Compound 27, (1R,3S,5S,8R,9S,10R,11R,13R,14S,17S)-17-(1-(4-Fluorobenzyl)-1H-1,2,3-triazol-4-yl)-10-(hydroxymethyl)-13-methyltetradecahydro-5H-cyclopenta[a]phenanthrene-1,3,5,11,14(2H)-pentaol]
IC50 [1]: 0.03 µM

SMILES: COCO[C@@H]1[C@H]2OC(C)(C)O[C@H]2[C@H](O[C@H]2C[C@H]3OC(C)(C)OC[C@]34[C@@H]3[C@@H](CC[C@]4(O)C2)[C@@]2(O)CC[C@H](CO)[C@@]2(C)C[C@H]3OCOC)O[C@H]1C [Compound 10, (3S,3aR,5R,5aS,5bR,9aR,11S,12aS,14aR,14bS)-3-(Hydroxymethyl)-5-(methoxymethoxy)-11-(((3aR,4R,6S,7S,7aR)-7-(methoxymethoxy)-2,2,6-trimethyltetrahydro-4H-[1,3]dioxolo[4,5-c]pyran-4-yl)oxy)-3a,8,8-trimethyltetradecahydro-6H-cyclopenta[7,8]phenanthro[4,4a-d][1,3]dioxine-12a,14b-diol]
effect on other parameters of sperm movement (progressive motility, velocities, linearity, beat cross frequency) ([2]; 1 h incubation): directly block all parameters of sperm movement | maximum reduction of sperm motility [2]: 50–60% | IC50 [3]: > 60 µM

SMILES: COCO[C@@H]1[C@H]2OC(C)(C)O[C@H]2[C@H](O[C@H]2C[C@H]3OC(C)(C)OC[C@]34[C@@H]3[C@@H](CC[C@]4(O)C2)[C@@]2(O)CC[C@H](C#N)[C@@]2(C)C[C@H]3OCOC)O[C@H]1C [Compound 11, (3S,3aR,5R,5aS,5bR,9aR,11S,12aS,14aR,14bS)-12a,14b-Dihydroxy-5-(methoxymethoxy)-11-(((3aR,4R,6S,7S,7aR)-7-(methoxymethoxy)-2,2,6-trimethyltetrahydro-4H-[1,3]dioxolo[4,5-c]pyran-4-yl)oxy)-3a,8,8-trimethylhexadecahydro-6H-cyclopenta[7,8]phenanthro[4,4a-d][1,3]dioxine-3-carbonitrile]
reduced activity compared to ouabain [1]: about 10 fold

SMILES: COCO[C@H]1C[C@H]2OC(C)(C)OC[C@]23[C@@H]2[C@@H](CC[C@]3(O)C1)[C@@]1(OCOC)CC[C@H](CO)[C@@]1(C)C[C@H]2OCOC [Compound 17, (3S,3aR,5R,5aS,5bR,9aR,11S,12aS,14aR,14bS)-3-(Hydroxymethyl)-5,11,14b-tris(methoxymethoxy)-3a,8,8-trimethyltetradecahydro-6H-cyclopenta[7,8]phenanthro[4,4a-d][1,3]dioxin-12a(1H)-ol]
effect on other parameters of sperm movement (progressive motility, velocities, linearity, beat cross frequency) ([2]; 1 h incubation): directly block all parameters of sperm movement | maximum reduction of sperm motility [2]: 50–60% | IC50 [3]: > 60 µM

SMILES: COc1ccc(-c2cn(C[C@H]3CC[C@]4(O)[C@@H]5CC[C@]6(O)C[C@@H](O)C[C@@H](O)[C@]6(CO)[C@H]5[C@H](O)C[C@]34C)nn2)cc1 [Compound 19, (1R,3S,5S,8R,9S,10R,11R,13R,14S,17S)-10-(Hydroxymethyl)-17-((4-(4-methoxyphenyl)-1H-1,2,3-triazol-1-yl)methyl)-13-methyltetradecahydro-5H-cyclopenta[a]phenanthrene-1,3,5,11,14(2H)-pentaol]
loss of Na,K-ATPase α4 inhibitory activity versus comparator [1]: 7 orders of magnitude

SMILES: C[C@]12C[C@@H](O)[C@H]3[C@@H](CC[C@]4(O)C[C@@H](O)C[C@@H](O)[C@]34CO)[C@@]1(O)CC[C@@H]2c1cn(Cc2ccccc2)nn1 [Compound 25, (1R,3S,5S,8R,9S,10R,11R,13R,14S,17S)-17-(1-Benzyl-1H-1,2,3-triazol-4-yl)-10-(hydroxymethyl)-13-methyltetradecahydro-5H-cyclopenta[a]phenanthrene-1,3,5,11,14(2H)-pentaol]
decrease of total sperm motility ([2]; 10^–8 M and higher, 1 h incubation): approximately 60% | effect on other parameters of sperm movement (progressive motility, velocities, linearity, beat cross frequency) ([2]; 1 h incubation): directly block all parameters of sperm movement | maximum reduction of sperm motility [2]: 50–60% | increase of sperm Vm (plasma membrane depolarization) [4]: approximately 40% | effect on sperm intracellular pH [5]: caused intracellular sperm acidification | increase of [Ca2+]i in sperm [6]: approximately 40% | toxic effect on treated rats [7]: did not exert any major toxic effect | reduction of hyperactivation accompanying sperm capacitation [8]: approximately 70% | IC50 [3]: > 60 µM

loss of Na,K-ATPase α4 inhibitory activity versus comparator [1]: 3 orders of magnitude
SMILES: COCO[C@H]1C[C@H]2OC(C)(C)OC[C@]23[C@@H]2[C@@H](CC[C@]3(O)C1)[C@@]1(OCOC)CC[C@H](C#N)[C@@]1(C)C[C@H]2OCOC [Compound 29, (3S,3aR,5R,5aS,5bR,9aR,11S,12aS,14aR,14bS)-12a-Hydroxy-5,11,14b-tris(methoxymethoxy)-3a,8,8-trimethylhexadecahydro-6H-cyclopenta[7,8]phenanthro[4,4a-d][1,3]dioxine-3-carbonitrile]

reduced activity compared to ouabain [1]: about 10 fold
SMILES: COCO[C@H]1C[C@H]2OC(C)(C)OC[C@]23[C@@H]2[C@@H](CC[C@]3(O)C1)[C@@]1(OCOC)CC[C@H](C(=O)O)[C@@]1(C)C[C@H]2OCOC [Compound 32, (3S,3aR,5R,5aS,5bR,9aR,11S,12aS,14aR,14bS)-12a-Hydroxy-5,11,14b-tris(methoxymethoxy)-3a,8,8-trimethylhexadecahydro-6H-cyclopenta[7,8]phenanthro[4,4a-d][1,3]dioxine-3-carboxylic Acid]

SMILES: CO[C@H]1C[C@H](O[C@H]2CC[C@]3(C=O)[C@H]4CC[C@]5(C)[C@@H](C6=CC(=O)OC6)CC[C@]5(O)[C@@H]4CC[C@]3(O)C2)O[C@H](C)[C@H]1O [cymarin, reference compound]
IC50 for Na,K-ATPase α4 inhibition (Figure 1) [1]: 10^–8 to 10^–9 M

SMILES: C[C@@H]1O[C@@H](O[C@H]2C[C@@H](O)[C@]3(CO)[C@H]4[C@H](O)C[C@]5(C)[C@@H](C6=CC(=O)OC6)CC[C@]5(O)[C@@H]4CC[C@]3(O)C2)[C@H](O)[C@H](O)[C@H]1O [ouabain]
sensitivity to ouabain, human Na,K-ATPase α4 versus α1 [9]: ~100 fold

SMILES: C[C@]12CC[C@H]3[C@@H](CC[C@]4(O)C[C@@H](O)CC[C@]34C=O)[C@@]1(O)CC[C@@H]2C1=CC(=O)OC1 [strophanthidin, reference compound]
IC50 for Na,K-ATPase α4 inhibition (Figure 1) [1]: 10^–8 to 10^–9 M
